Results reported in publication PMC11463018 (Journal of Enzyme Inhibition and Medicinal Chemistry, 2024).

How the values were obtained:
[1] = system: UACC-62; experiment: NCI-60 screening, UACC-62; type: cell-based; details: Homo sapiens, UACC-62, read-out: GI50, UACC-62
[2] = system: NCI-H522; experiment: NCI-60 screening, NCI-H522; type: cell-based; details: Homo sapiens, NCI-H522, read-out: GI50, NCI-H522
[3] = system: MALME-3M; experiment: NCI-60 screening, MALME-3M; type: cell-based; details: Homo sapiens, read-out: GI50, MALME-3M
[4] = system: A549/ATCC; experiment: NCI-60 screening, A549/ATCC; type: cell-based; details: Homo sapiens, A549, read-out: GI50, A549/ATCC
[5] = system: SR; experiment: NCI-60 screening, SR; type: cell-based; details: Homo sapiens, read-out: GI50, SR
[6] = target: HDAC5 (Homo sapiens, UniProt Q9UQL6); experiment: In vitro HDAC enzyme assay; type: biochemical
[7] = system: RPMI-8226; experiment: NCI-60 screening, RPMI-8226; type: cell-based; details: Homo sapiens, RPMI-8226, read-out: GI50, RPMI-8226
[8] = system: 786-0; experiment: NCI-60 screening, 786-0; type: cell-based; details: Homo sapiens, 786-0, read-out: GI50, 786-0
[9] = target: JAK2 (Homo sapiens, UniProt O60674); experiment: Kinase inhibition assay; type: biochemical
[10] = system: HCT-116; experiment: NCI-60 screening, HCT-116; type: cell-based; details: Homo sapiens, HCT-116, read-out: GI50, HCT-116
[11] = target: T1, HDAC6 (Homo sapiens, UniProt Q9UBN7); experiment: In vitro HDAC enzyme assay; type: biochemical
T1 sequence (Q9UBN7 1-1215): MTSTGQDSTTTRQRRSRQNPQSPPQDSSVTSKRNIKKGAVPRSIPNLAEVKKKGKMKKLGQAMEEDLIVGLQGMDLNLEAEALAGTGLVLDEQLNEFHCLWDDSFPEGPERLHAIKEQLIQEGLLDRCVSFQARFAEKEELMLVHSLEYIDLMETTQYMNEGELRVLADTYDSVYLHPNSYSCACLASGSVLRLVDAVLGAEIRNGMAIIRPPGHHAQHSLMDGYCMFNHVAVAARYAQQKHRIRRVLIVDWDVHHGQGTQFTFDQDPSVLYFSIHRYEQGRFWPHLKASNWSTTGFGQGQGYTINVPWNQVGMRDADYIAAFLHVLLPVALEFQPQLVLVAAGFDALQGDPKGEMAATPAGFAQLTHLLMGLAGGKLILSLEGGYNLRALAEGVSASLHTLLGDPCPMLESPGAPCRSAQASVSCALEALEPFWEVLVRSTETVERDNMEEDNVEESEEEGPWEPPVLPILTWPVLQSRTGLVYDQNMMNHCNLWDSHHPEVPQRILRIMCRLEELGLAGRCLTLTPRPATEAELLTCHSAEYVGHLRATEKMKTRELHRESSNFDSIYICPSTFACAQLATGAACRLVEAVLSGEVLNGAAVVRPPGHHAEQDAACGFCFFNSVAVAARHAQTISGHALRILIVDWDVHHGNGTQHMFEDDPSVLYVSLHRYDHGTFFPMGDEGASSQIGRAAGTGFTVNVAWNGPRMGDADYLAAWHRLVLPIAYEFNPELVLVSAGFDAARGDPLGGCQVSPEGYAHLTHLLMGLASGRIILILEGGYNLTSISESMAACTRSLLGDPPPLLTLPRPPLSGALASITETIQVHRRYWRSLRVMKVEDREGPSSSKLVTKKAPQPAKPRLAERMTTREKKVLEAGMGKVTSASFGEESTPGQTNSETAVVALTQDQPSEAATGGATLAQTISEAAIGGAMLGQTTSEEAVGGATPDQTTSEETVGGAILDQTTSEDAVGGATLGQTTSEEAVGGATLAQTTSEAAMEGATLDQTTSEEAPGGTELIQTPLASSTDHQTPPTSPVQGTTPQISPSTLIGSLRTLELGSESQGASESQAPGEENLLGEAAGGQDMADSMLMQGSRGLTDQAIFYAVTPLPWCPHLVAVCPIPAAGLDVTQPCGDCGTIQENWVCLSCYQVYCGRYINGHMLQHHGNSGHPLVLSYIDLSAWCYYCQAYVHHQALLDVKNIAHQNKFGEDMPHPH

[12] = system: SK-MEL-28; experiment: NCI-60 screening, SK-MEL-28; type: cell-based; details: Homo sapiens, SK-MEL-28, read-out: GI50, SK-MEL-28
[13] = system: ACHN; experiment: NCI-60 screening, ACHN; type: cell-based; details: Homo sapiens, read-out: GI50, ACHN
[14] = system: SK-MEL-2; experiment: NCI-60 screening, SK-MEL-2; type: cell-based; details: Homo sapiens, SK-MEL-2, read-out: GI50, SK-MEL-2
[15] = system: OVCAR-3; experiment: NCI-60 screening, OVCAR-3; type: cell-based; details: Homo sapiens, OVCAR-3, read-out: GI50, OVCAR-3
[16] = system: SNB-75; experiment: NCI-60 screening, SNB-75; type: cell-based; details: Homo sapiens, SNB-75, read-out: GI50, SNB-75
[17] = target: HDAC3 (Homo sapiens, UniProt O15379); experiment: In vitro HDAC enzyme assay; type: biochemical
[18] = target: HDAC4 (Homo sapiens, UniProt P56524); experiment: In vitro HDAC enzyme assay; type: biochemical
[19] = system: HL60; experiment: NCI-60 screening, HL60; type: cell-based; details: Homo sapiens, HL-60, read-out: GI50, HL60
[20] = system: MOLT-4; experiment: NCI-60 screening, MOLT-4; type: cell-based; details: Homo sapiens, MOLT-4, read-out: GI50, MOLT-4
[21] = system: SK-MEL-5; experiment: NCI-60 screening, SK-MEL-5; type: cell-based; details: Homo sapiens, SK-MEL-5, read-out: GI50, SK-MEL-5
[22] = target: TYK2 (Homo sapiens, UniProt P29597); experiment: Kinase inhibition assay; type: biochemical
[23] = system: SNB-19; experiment: NCI-60 screening, SNB-19; type: cell-based; details: Homo sapiens, SNB-19, read-out: GI50, SNB-19

HDAC3, sequence (O15379 whole entry): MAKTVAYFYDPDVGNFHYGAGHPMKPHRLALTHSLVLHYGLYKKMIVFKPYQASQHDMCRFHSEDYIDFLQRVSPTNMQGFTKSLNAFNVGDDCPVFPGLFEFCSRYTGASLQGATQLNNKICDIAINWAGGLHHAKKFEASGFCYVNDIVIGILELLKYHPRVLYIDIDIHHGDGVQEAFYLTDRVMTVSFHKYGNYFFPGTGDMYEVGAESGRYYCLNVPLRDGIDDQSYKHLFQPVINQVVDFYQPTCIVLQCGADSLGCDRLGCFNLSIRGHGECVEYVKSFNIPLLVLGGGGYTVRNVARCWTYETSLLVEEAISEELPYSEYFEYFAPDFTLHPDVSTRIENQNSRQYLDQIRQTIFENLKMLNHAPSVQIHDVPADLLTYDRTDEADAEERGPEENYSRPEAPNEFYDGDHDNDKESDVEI
HDAC3, sequence (Q9Y618 395-489 partner limits assumed): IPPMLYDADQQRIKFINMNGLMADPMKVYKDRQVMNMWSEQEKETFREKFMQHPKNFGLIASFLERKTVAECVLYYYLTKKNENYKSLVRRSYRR
HDAC4, sequence (P56524 whole entry): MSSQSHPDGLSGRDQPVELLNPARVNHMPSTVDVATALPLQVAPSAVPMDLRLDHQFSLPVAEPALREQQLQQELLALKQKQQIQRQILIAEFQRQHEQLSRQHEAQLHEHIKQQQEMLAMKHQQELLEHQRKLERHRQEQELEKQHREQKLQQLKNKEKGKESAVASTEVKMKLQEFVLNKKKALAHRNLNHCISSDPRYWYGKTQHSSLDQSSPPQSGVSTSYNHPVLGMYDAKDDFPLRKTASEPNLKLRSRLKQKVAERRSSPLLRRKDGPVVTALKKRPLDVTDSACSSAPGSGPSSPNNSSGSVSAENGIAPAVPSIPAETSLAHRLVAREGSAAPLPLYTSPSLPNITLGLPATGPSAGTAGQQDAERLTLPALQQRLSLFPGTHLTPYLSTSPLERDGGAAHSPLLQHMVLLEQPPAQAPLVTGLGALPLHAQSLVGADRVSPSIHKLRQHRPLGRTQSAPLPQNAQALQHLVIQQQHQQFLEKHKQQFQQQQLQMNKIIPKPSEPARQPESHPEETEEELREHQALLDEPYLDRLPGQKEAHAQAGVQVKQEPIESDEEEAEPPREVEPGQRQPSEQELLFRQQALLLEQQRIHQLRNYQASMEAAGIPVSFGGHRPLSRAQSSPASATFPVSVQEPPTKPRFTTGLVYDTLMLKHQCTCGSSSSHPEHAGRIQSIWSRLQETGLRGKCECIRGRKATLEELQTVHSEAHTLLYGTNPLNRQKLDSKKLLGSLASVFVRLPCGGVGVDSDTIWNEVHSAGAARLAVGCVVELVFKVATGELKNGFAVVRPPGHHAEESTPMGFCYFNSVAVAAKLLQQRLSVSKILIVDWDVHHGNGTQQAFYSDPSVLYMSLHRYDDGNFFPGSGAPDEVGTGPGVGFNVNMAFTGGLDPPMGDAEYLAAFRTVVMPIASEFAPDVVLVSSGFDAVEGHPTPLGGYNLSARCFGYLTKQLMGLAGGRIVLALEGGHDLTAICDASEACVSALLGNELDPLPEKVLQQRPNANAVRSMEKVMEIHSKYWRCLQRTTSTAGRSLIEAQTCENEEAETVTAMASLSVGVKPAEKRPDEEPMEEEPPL
HDAC5, sequence (Q9UQL6 whole entry): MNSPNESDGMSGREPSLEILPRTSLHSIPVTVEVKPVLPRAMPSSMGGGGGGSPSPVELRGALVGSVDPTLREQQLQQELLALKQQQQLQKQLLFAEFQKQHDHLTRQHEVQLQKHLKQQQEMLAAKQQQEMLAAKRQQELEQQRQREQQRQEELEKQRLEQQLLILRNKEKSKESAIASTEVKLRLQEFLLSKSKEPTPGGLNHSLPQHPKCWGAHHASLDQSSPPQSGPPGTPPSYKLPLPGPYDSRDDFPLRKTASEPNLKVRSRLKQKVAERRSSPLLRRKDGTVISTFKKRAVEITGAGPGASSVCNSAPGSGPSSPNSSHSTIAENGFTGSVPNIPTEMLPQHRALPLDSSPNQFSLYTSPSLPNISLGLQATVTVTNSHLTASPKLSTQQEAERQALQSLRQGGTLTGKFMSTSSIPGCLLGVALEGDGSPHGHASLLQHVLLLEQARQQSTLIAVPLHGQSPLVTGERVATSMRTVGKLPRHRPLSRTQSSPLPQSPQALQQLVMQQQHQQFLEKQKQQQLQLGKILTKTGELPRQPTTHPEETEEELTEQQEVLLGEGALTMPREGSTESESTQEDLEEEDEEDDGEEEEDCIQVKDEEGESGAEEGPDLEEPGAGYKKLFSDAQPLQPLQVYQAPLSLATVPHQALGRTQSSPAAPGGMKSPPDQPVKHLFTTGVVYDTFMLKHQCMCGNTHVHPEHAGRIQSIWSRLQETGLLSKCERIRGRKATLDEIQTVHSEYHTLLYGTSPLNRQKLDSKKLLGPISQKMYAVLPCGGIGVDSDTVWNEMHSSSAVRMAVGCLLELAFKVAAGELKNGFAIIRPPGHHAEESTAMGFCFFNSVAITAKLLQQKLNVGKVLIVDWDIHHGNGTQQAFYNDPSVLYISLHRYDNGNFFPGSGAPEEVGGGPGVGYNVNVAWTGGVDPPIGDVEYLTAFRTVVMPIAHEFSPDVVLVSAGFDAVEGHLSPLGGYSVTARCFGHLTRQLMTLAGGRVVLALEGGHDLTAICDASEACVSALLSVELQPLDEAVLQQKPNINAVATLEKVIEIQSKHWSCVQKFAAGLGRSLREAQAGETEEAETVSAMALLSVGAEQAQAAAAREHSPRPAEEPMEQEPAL
TYK2, sequence (P29597 whole entry): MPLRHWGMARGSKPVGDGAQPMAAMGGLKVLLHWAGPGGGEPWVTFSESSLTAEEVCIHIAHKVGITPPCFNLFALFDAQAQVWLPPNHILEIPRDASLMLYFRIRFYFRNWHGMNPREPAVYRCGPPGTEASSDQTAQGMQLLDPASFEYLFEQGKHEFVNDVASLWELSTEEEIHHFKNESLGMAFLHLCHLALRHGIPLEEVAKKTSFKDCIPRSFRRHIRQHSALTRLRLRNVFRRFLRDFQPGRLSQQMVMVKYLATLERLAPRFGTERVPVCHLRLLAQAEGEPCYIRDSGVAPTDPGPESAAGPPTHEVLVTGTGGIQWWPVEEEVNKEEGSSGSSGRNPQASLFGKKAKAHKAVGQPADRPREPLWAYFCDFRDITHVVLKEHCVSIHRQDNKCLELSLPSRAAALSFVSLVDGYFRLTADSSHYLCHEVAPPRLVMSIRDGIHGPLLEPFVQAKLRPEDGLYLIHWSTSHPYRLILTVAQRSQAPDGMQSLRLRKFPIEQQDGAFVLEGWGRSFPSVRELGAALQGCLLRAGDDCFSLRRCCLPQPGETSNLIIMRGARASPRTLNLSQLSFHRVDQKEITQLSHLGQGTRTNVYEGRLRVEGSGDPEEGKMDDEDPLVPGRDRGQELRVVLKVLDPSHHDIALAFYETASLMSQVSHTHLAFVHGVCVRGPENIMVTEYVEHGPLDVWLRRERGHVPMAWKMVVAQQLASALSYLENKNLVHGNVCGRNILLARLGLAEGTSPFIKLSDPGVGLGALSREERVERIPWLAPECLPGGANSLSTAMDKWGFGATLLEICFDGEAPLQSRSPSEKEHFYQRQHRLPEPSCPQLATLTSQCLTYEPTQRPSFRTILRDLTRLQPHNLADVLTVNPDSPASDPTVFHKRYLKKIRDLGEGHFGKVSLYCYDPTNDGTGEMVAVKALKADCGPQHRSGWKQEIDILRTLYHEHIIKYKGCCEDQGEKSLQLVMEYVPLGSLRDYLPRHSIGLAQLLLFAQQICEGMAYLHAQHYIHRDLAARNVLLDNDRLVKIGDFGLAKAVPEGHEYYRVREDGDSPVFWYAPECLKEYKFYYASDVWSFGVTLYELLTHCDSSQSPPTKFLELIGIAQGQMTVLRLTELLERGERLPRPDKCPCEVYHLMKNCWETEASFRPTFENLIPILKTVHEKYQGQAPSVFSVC
JAK2, sequence (O60674 whole entry): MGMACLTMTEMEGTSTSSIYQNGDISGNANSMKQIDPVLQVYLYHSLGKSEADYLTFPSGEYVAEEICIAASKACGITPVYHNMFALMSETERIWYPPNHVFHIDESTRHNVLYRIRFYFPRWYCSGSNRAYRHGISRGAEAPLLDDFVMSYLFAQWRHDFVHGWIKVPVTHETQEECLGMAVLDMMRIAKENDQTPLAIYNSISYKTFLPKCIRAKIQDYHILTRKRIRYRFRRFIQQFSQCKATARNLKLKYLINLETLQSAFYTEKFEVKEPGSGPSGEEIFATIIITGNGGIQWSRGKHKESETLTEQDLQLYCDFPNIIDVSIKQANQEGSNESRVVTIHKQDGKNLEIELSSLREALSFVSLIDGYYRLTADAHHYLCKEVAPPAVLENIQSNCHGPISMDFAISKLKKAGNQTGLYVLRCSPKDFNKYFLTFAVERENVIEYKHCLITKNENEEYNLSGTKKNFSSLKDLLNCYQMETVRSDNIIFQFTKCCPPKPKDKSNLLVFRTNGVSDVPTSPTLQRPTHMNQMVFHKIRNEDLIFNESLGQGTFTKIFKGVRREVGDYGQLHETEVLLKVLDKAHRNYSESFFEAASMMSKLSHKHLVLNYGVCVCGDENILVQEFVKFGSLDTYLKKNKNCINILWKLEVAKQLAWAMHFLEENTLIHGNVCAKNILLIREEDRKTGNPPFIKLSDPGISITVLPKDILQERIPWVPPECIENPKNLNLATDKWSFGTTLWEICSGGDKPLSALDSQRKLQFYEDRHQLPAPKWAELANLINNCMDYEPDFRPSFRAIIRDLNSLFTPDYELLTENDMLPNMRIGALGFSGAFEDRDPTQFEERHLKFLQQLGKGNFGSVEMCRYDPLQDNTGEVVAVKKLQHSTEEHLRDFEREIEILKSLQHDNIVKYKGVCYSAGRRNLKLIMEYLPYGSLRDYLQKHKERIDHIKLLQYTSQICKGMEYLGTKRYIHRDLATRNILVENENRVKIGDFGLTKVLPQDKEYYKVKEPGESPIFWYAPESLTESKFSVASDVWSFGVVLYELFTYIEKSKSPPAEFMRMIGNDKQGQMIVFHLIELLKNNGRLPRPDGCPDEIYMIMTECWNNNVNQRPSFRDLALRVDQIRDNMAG

O=C(NO)c1ccc(CNc2nc3cccc(-c4ccc5c(c4)OCO5)n3n2)cc1 [Compound 19, 4-(((5-(Benzo[d][1, 3]dioxol-5-yl)-[1,2, 4]triazolo[1,5-a]pyridin-2-yl)amino)methyl)-N-hydroxybenzamide]
GI50 [1]: 420 nM
GI50 [2]: 100 nM
GI50 [3]: 250 nM
GI50 [4]: 890 nM
GI50 [5]: 100 nM
IC50 [6]: > 50000 nM
HDAC5 IC50 ([6]; duplicate, SD <15%): no activity
GI50 [7]: 100 nM
GI50 [8]: 1000 nM
IC50 [9]: 278 ± 20 nM
GI50 [10]: 440 nM
IC50 [11]: 4.3 ± 0.1 nM
GI50 [12]: 480 nM
GI50 [13]: 550 nM
GI50 [14]: 250 nM
GI50 [15]: 420 nM
GI50 [16]: 350 nM
IC50 [17]: 83 ± 2.4 nM
Fold weaker on HDAC3 than HDAC6 ([17]; IC50 HDAC3 vs HDAC6): ~19 fold
IC50 [18]: > 50000 nM
HDAC4 IC50 ([18]; duplicate, SD <15%): no activity
GI50 [19]: 440 nM
GI50 [20]: 350 nM
GI50 [21]: 550 nM
IC50 [22]: 860 ± 33 nM
TYK2 IC50 ([22]; duplicate, SD <15%): very poor inhibitory activities
GI50 [23]: 1000 nM
